Patent US12378243B2, “Quinoline compounds as inhibitors of KRAS” (Incyte Corporation, priority 2021, dated 2025)

Tests used:
KRAS G12D = KRAS G12D (Homo sapiens, UniProt P01116, G12D); assay: GDP-GTP exchange assay, KRAS G12D; assay type: biochemical; settings: bodipy-loaded KRAS G12D 2.5 nM, GppNHp 500 uM, SOS1 150 nM; 4 hours pre-incubation, 2 hours incubation; read-out: G12D_exchange
Procedure, shortened: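 Nucleotide exchange started with 1 mM GppNHp and 300 nM SOS1, then 2 h at ambient temperature. IC50 from four-parameter logistic fit with variable Hill slope.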

KRAS G12V mutant = KRAS G12V mutant (Homo sapiens, UniProt P01116, G12V); assay: GDP-GTP exchange assay, KRAS G12V; assay type: biochemical; settings: bodipy loaded KRAS G12V 2.5 nM; 3 hours incubation after adding GppNHp-SOS1 mixture; read-out: G12V_exchange
Caco-2 cells = assay: Caco2 assay (permeability, A-B); assay type: in vitro ADME; settings: Table 4; Papp absorptive direction (A-B), test compound 50 μM, 120 minutes at 37° C.
Procedure, shortened: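 Caco-2 monolayers grown 22-25 days on Transwells, used only at TEER ≥300 Ω·cm^2. Compound at 50 μM in HBSS added apically, receiver HBSS with 4% BSA; 120 min at 37 °C. LCMS quantification; Papp from receiver flux slope, membrane area and initial donor amount.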

Sequence of KRAS G12D (P01116 1-188 isoform P01116-2 G12D): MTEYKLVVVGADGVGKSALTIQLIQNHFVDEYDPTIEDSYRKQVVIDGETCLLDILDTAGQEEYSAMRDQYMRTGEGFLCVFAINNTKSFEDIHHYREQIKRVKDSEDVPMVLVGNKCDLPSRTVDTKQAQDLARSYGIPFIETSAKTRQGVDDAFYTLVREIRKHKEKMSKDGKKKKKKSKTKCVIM
Sequence of KRAS G12V mutant (P01116 1-188 isoform P01116-2 G12V): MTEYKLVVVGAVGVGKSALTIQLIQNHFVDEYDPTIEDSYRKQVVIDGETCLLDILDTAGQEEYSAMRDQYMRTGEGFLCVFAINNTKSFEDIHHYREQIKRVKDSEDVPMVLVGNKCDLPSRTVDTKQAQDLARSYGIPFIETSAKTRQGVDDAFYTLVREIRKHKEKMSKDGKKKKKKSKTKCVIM

SMILES | IC50 (KRAS G12D) | IC50 (KRAS G12V mutant) | Caco-2 (Caco-2 cells)
C[C@H](c1cc2c(-c3ccc(C(C)(C)O)nc3)nc3c(F)c(-c4cccc5ccc(F)cc45)c(CCC#N)cc3c2n1[C@H]1[C@H]2CN[C@@H]1C2)N1CCOCC1=O [Example 46, 3-(1-((1R,4R,5S)-2-Azabicyclo[2.1.1]hexan-5-yl)-6-fluoro-7-(7-fluoronaphthalen-1-yl)-4-(6-(2-hydroxypropan-2-yl)pyridin-3-yl)-2-((R)-1-(3-oxomorpholino)ethyl)-1H-pyrrolo[3,2-c]quinolin-8-yl)propanenitrile] | < 100 nM | < 100 nM | +++ (a Caco-2 value of >1)
Cc1cnc(-c2nc3c(F)c(-c4cccc5ccc(F)cc45)c(CCC#N)cc3c3c2cc([C@@H](C)N2CCOCC2=O)n3[C@H]2[C@H]3CN[C@@H]2C3)cn1 [Example 47, 3-(1-((1R,4R,5S)-2-Azabicyclo[2.1.1]hexan-5-yl)-6-fluoro-7-(7-fluoronaphthalen-1-yl)-4-(5-methylpyrazin-2-yl)-2-((R)-1-(3-oxomorpholino)ethyl)-1H-pyrrolo[3,2-c]quinolin-8-yl)propanenitrile] | < 100 nM | < 100 nM | +++ (a Caco-2 value of >1)
COC(=O)N1[C@@H](c2cc3c(-c4ccc(C(=O)N(C)C)nc4)nc4c(F)c(-c5cccc(Cl)c5Cl)c(CCC#N)cc4c3n2[C@H]2[C@H]3CN[C@@H]2C3)C[C@H]2C[C@H]21 [Example 48, Methyl (1R,3R,5R)-3-(1-((1R,4R,5S)-2-azabicyclo[2.1.1]hexan-5-yl)-8-(2-cyanoethyl)-7-(2,3-dichlorophenyl)-4-(6-(dimethylcarbamoyl)pyridin-3-yl)-6-fluoro-1H-pyrrolo[3,2-c]quinolin-2-yl)-2-azabicyclo[3.1.0]hexane-2-carboxylate] | < 100 nM | < 100 nM | ++ (a Caco-2 value of >0.5 but ≤1)
COC(=O)N1C[C@@H](F)C[C@@H]1c1cc2c(-c3ccc(C(C)(C)O)nc3)nc3c(F)c(-c4cccc(Cl)c4Cl)c(CCC#N)cc3c2n1[C@H]1[C@H]2CN[C@@H]1C2 [Example 51, Methyl (2R,4S)-2-(1-((1R,4R,5S)-2-azabicyclo[2.1.1]hexan-5-yl)-8-(2-cyanoethyl)-7-(2,3-dichlorophenyl)-6-fluoro-4-(6-(2-hydroxypropan-2-yl)pyridin-3-yl)-1H-pyrrolo[3,2-c]quinolin-2-yl)-4-fluoropyrrolidine-1-carboxylate] | < 100 nM | < 100 nM | +++ (a Caco-2 value of >1)
COC(=O)N1CCC[C@@H]1c1c(Cl)c2c(-c3ccc(C(C)(C)O)nc3)nc3c(F)c(-c4cccc(Cl)c4Cl)c(CCC#N)cc3c2n1[C@H]1[C@H]2CN[C@@H]1C2 [Example 53, Methyl (2R)-2-(1-((1R,4R,5S)-2-azabicyclo[2.1.1]hexan-5-yl)-3-chloro-8-(2-cyanoethyl)-7-(2,3-dichlorophenyl)-6-fluoro-4-(6-(2-hydroxypropan-2-yl)pyridin-3-yl)-1H-pyrrolo[3,2-c]quinolin-2-yl)pyrrolidine-1-carboxylate] | < 100 nM | < 100 nM | +++ (a Caco-2 value of >1)

Other lines, results leading:

IC50 (KRAS G12D) | IC50 (KRAS G12V mutant) | Caco-2 (Caco-2 cells) | SMILES
< 100 nM | < 100 nM | +++ (a Caco-2 value of >1) | Cc1nc2c(F)c(-c3cccc(Cl)c3Cl)c(CCC#N)cc2c2c1cc([C@H]1C[C@H]3C[C@H]3N1C(=O)C1CC1)n2[C@H]1[C@H]2CN[C@@H]1C2 [Example 49, 3-(1-((1R,4R,5S)-2-Azabicyclo[2.1.1]hexan-5-yl)-2-((1R,3R,5R)-2-(cyclopropanecarbonyl)-2-azabicyclo[3.1.0]hexan-3-yl)-7-(2,3-dichlorophenyl)-6-fluoro-4-methyl-1H-pyrrolo[3,2-c]quinolin-8-yl)propanenitrile]
< 100 nM | < 100 nM | +++ (a Caco-2 value of >1) | C[C@H](c1cc2c(-c3ccc(C(C)(C)O)nc3)nc3c(F)c(-c4cccc(Cl)c4Cl)c(CCC#N)cc3c2n1[C@H]1[C@H]2CN[C@@H]1C2)n1ccncc1=O [Example 50, 3-(1-((1R,4R,5S)-2-Azabicyclo[2.1.1]hexan-5-yl)-7-(2,3-dichlorophenyl)-6-fluoro-4-(6-(2-hydroxypropan-2-yl)pyridin-3-yl)-2-((R)-1-(2-oxopyrazin-1(2H)-yl)ethyl)-1H-pyrrolo[3,2-c]quinolin-8-yl)propanenitrile]
< 100 nM | < 100 nM | +++ (a Caco-2 value of >1) | COC(=O)N1[C@H](C)CC[C@@H]1c1cc2c(-c3ccc(C(C)(C)O)nc3)nc3c(F)c(-c4cccc(Cl)c4Cl)c(CCC#N)cc3c2n1[C@H]1[C@H]2CN[C@@H]1C2 [Example 52, Methyl (2R,5R)-2-(1-((1R,4R,5S)-2-azabicyclo[2.1.1]hexan-5-yl)-8-(2-cyanoethyl)-7-(2,3-dichlorophenyl)-6-fluoro-4-(6-(2-hydroxypropan-2-yl)pyridin-3-yl)-1H-pyrrolo[3,2-c]quinolin-2-yl)-5-methylpyrrolidine-1-carboxylate]
< 100 nM | < 100 nM | +++ (a Caco-2 value of >1) | COC(=O)N[C@H](C)c1cc2c(C)nc3c(F)c(-c4cccc(Cl)c4Cl)c(CCC#N)cc3c2n1[C@H]1[C@H]2CN[C@@H]1C2 [Example 55, Methyl ((1R)-1-(1-((1R,4R,5S)-2-azabicyclo[2.1.1]hexan-5-yl)-8-(2-cyanoethyl)-7-(2,3-dichlorophenyl)-6-fluoro-4-methyl-1H-pyrrolo[3,2-c]quinolin-2-yl)ethyl)carbamate]
< 100 nM | < 100 nM | +++ (a Caco-2 value of >1) | Cc1nc2c(F)c(-c3cccc(Cl)c3Cl)c(CCC#N)cc2c2c1cc([C@@H](C)NC(=O)C(F)F)n2[C@H]1[C@H]2CN[C@@H]1C2 [Example 56, N-((1R)-1-(1-((1R,4R,5S)-2-Azabicyclo[2.1.1]hexan-5-yl)-8-(2-cyanoethyl)-7-(2,3-dichlorophenyl)-6-fluoro-4-methyl-1H-pyrrolo[3,2-c]quinolin-2-yl)ethyl)-2,2-difluoroacetamide]
< 100 nM | < 100 nM | +++ (a Caco-2 value of >1) | Cc1nc2c(F)c(-c3cccc(Cl)c3Cl)c(CCC#N)cc2c2c1cc([C@@H](C)NC(=O)[C@@H]1CCCO1)n2[C@H]1[C@H]2CN[C@@H]1C2 [Example 57, (2S)—N-((1R)-1-(1-((1R,4R,5S)-2-Azabicyclo[2.1.1]hexan-5-yl)-8-(2-cyanoethyl)-7-(2,3-dichlorophenyl)-6-fluoro-4-methyl-1H-pyrrolo[3,2-c]quinolin-2-yl)ethyl)tetrahydrofuran-2-carboxamide]
< 100 nM | < 100 nM | ++ (a Caco-2 value of >0.5 but ≤1) | Cc1nc2c(F)c(-c3cccc(Cl)c3Cl)c(CCC#N)cc2c2c1cc([C@@H](C)NS(=O)(=O)C1CC1)n2[C@H]1[C@H]2CN[C@@H]1C2 [Example 58, N-((1R)-1-(1-((1R,4R,5S)-2-Azabicyclo[2.1.1]hexan-5-yl)-8-(2-cyanoethyl)-7-(2,3-dichlorophenyl)-6-fluoro-4-methyl-1H-pyrrolo[3,2-c]quinolin-2-yl)ethyl)cyclopropanesulfonamide]
